According to patent publication US20190111168A1, “PHOTOSENSITIZER DISPERSION, AND USE THEREOF” (Universität Regensburg, priority 2016, published 2019):

What was measured:
[1] = time-resolved singlet oxygen luminescence measurements in water and microemulsions; assay type: physicochemical; design: Integral: unit not given here; settings: for production of singlet oxygen following irradiation with electromagnetic radiation: 5 μM in water or microemulsions; for formation of singlet oxygen in the microemulsions used, times higher than in water: microemulsions versus water; for Integral: singlet oxygen luminescence; for Decay period / Formation time / Relative yield with respect to H2O: singlet oxygen; for Relative yield with respect to H2O: ratio of the integrals
Experimental: The formation of singlet oxygen following irradiation of a photosensitizer-containing microemulsion was determined using time-resolved singlet oxygen luminescence measurements.
For the relevant measurements, 5 μM of the respective photosensitizers used were dissolved in water or in the emulsions E1 to E4.
The time-resolved singlet oxygen luminescence measurements were carried out in accordance with the methods described in S. Y. Egorov et al., 1999.
A tuneable laser system was used to produce the singlet oxygen (model: NT242-SH/SFG, serial number: PGD048) from EKSPLA (Vilnius, […]). A portion of the monochromatic laser beam produced was directed onto a photodiode which acted as a trigger signal for the time-correlated single photon measurement.
The other part of the laser beam was directed onto a 1 cm thick quartz cell (SUPRASIL, Type 101-QS, Hellma GmbH & Co. KG, Mühlheim, DE), in which the solution to be tested had been disposed.
The formation of singlet oxygen was detected by direct detection of the time- and spectrally-resolved singlet oxygen luminescence.
Singlet oxygen luminescence was carried out by means of a nitrogen-cooled photomultiplier (model R5509-42, Hamamatsu Photonics, Hamamatsu, Japan) and a multiscaler (7886S, FAST Corn Tec GmbH, Oberhaching, Germany).
The singlet oxygen luminescence was detected at a wavelength in the range 1200 nm to 1400 nm using interference filters which were disposed in front of the photomultiplier.
The quantum yield was determined in accordance with the method described in Baier J. et al. (“Singlet Oxygen Generation by UVA Light Exposure of Endogenous Photosensitizers”, Biophys. J. 91(4), 2006, pages 1452 to 1459; doi. 10.1529/biophysj.106.082388).
The relative yield of singlet oxygen for each photosensitizer with respect to the quantity of singlet oxygen formed in water was calculated from the ratio of the integrals.

[2] = test system: Escherichia coli (E. coli; ATCC Number: 25922); assay: phototoxicity measurements (MTT test; colony forming units by Miles and Misra); assay type: cell-based; settings: for effectiveness against E. coli in a microemulsion compared with water: microemulsion versus water; for reduction in the quantity of E. coli: irradiated
Source text: (§1) In order to investigate the phototoxicity of the microemulsions in accordance with the invention, a MTT test was used. Assaying cell vitality using a MTT test is based on the reduction of the yellow, water-soluble dye 3-(4,5-dimethylthiazol-2-yl)-2,5-diphenyltetrazolium bromide (MIT, Sigma-Aldrich Chemie GmbH, Munich, DE) into a blue-violet […] (formazan) which is insoluble in water. MTT is a dye which can pass through membranes, which is metabolized by mitochondrial dehydrogenases in living cells, which in the end leads to the formation of formazan crystals.
(§2) Formazan crystals can no longer pass through the membranes and accumulate in proliferating undamaged cells. After cell lysis and dissolving the crystals, the dye is then quantified by colorimetric measurement at 550 nm in a multi-well spectrophotometer (ELISA reader). The quantity of formazan formed is determined as the optical density (OD). The measured quantity of formazan is directly proportional to the number of proliferating cells, so that this test is suitable for the measurement of the phototoxicity of the microemulsions used. The measured OD can be assigned a cell count by means of a previously determined calibration curve.
(§3) The concentration of the respective photosensitizers TMPyP, SA-PN-01a, SA-PN-02a, SA-PN-24d, FL-AS-H-1a or FL-AS-H-2 in the microemulsions E1 to E4 was 0 μM, 10 μM, 25 μM, 50 μM, 100 μM, 250 μM and 500 μM.
(§4) Furthermore, the respective microemulsions E1 to E4 without photosensitizer were used as a control.
(§5) The phototoxicity measurements were carried out on Escherichia coli (E. coli; ATCC Number: 25922) and Staphylococcus aureus (S. aureus; ATCC Number: 25923), as described by Mosmann (1983). (Mosmann T.: Rapid colorimetric assay for cellular growth and survival: application to proliferation and cytotoxicity assays: J. Immunol. methods. 1983 (65); pages 55-63).
(§6) 25 μL of a suspension of the bacteria used were grown overnight in Müller-Hinton liquid medium (Merck KGaA, Darmstadt, Germany) with an optical density of 0.6 at 600 nm were incubated with 25 μL of the test solution at room temperature for 10 seconds in darkness in a 96-well microtitre plate (Cellstar, Greiner Bio-One, Frickenhausen, Germany).
(§7) Next, the microtitre plate was irradiated for 40 s. For irradiation, the light source Blue V from Waldmann (Villingen-Schwenningen, Germany) was used, which emits light at 380 to 480 nm (emission maximum at approximately 420 nm). The applied power was 20 mW/cm^2.
(§8) For each experiment, three controls were carried out at the same time in order to exclude side effects of the irradiation/photosensitizer (PS) on survival of the bacteria: (i) no PS, only light (=light control), (ii) no light, only PS (=dark control), and (iii) neither light nor PS (=reference control).
(§9) After irradiation had been completed, 75 μL of a 25% by weight SDS solution was added to each well of the microtitre plate and the bacterial cells were lysed overnight at 37° C. in an incubator.
(§10) Finally, the optical density (OD) was determined with the aid of a microtitre plate photometer (model EAR 400 AT, SLT Laborinstruments Austria, Salzburg, AT).
(§11) After lysis of the cells and dissolution of the crystals, the dye could then be quantified in a multi-well spectrophotometer (ELISA-Reader) by colorimetric measurement at 550 nm.
(§12) The determination of the colony forming units was carried out in accordance with the method published by Miles and Misra (Miles, AA; Misra, SS, Irwin, JO (1938 November). “The estimation of the bactericidal power of the blood” The Journal of hygiene 38 (6): 732-49). In this regard, serial dilutions from 10^−2 to 10^−9 of the corresponding bacterial suspension were produced. In each case, 3×20 μL of the corresponding bacterial dilutions were then dropped onto Müller-Hinton plates and incubated at 37° C. for 24 h. Next, the number of surviving colony forming units (CFU) was determined. All of the experiments were carried out three times.

[3] = test system: Staphylococcus aureus (S. aureus; ATCC Number: 25923); assay: as above; assay type: cell-based; settings: for effectiveness against S. aureus in a microemulsion compared with water: microemulsion versus water; for reduction in the quantity of S. aureus: irradiated
Source text: as §1, §2, §3, §4, §5, §6, §7, §8, §9, §10, §11, §12

[4] = absorption spectrum following irradiation with varying doses of light (degradation of photosensitizer); assay type: physicochemical; settings: light dose 5.5 J to 990 J
Experimental: The absorption of the FL-AS-H-1a photosensitizer used in the microemulsions E5 and E6 was determined by recording an absorption spectrum for a wavelength range of 250 nm to 600 nm, as described in Example 1. To this end, the FL-AS-H-2 photosensitizer was dissolved in a concentration of 10 μM in the microemulsions E5 and E6, as well as in water. Furthermore, an absorption spectrum of FL-AS-H-2 in microemulsions E5 and E6 as well as in water was measured following irradiation with varying doses of light. For the irradiation, the light source Blue V from Waldmann, which emits light at 380 to 480 nm (emission maximum at approximately 420 nm) was used. The applied light dose was from 5.5 J to 990 J.

[5] = time-resolved singlet oxygen luminescence measurements in gels; assay type: physicochemical; settings: final concentration 10 μM
[6] = photosensitizer 5 μM in microemulsion E1
[7] = photosensitizer 5 μM in microemulsion E2
[8] = photosensitizer 5 μM in microemulsion E1 (DMS, SDS/1-pentanol (1:2); water)
[9] = photosensitizer 5 μM in microemulsion E2 (DMS, SDS/1,2-pentanediol (1:2); water)
[10] = 10 μM in one of the microemulsions E1 to E4
[11] = in one of the microemulsions E1 to E4, from a concentration of 25 μM
[12] = 10 μM to 100 μM, both in water and in microemulsions E1 to E4, Blue V 40 s, 20 mW/cm^2
[13] = more than 100 μM in water (concentrated aqueous solutions)
[14] = more than 100 μM to 500 μM in microemulsions

| Compound | production of singlet oxygen following irradiation with electromagnetic radiation [1] | formation of singlet oxygen in the microemulsions used, times higher than in water [1] [times] | Integral ([1]; photosensitizer 5 μM in H2O) | Integral [1, 6] | Integral [1, 7] | Decay period ([1]; photosensitizer 5 μM in H2O) [μs] | Formation time ([1]; photosensitizer 5 μM in H2O) [μs] | Decay period [1, 6] [μs] | Formation time [1, 8] [μs] | Decay period [1, 7] [μs] | Formation time [1, 9] [μs] | Relative yield with respect to H2O ([1]; 5 μM in microemulsion E1) | Relative yield with respect to H2O ([1]; 5 μM in microemulsion E2) | reduction in the quantity of E. coli following irradiation [2, 10] | reduction in the quantity of S. aureus following irradiation [3, 10] | effectiveness against E. coli in a microemulsion compared with water [2] | effectiveness against S. aureus in a microemulsion compared with water [3] | further results |
| --- | --- | --- | --- | --- | --- | --- | --- | --- | --- | --- | --- | --- | --- | --- | --- | --- | --- | --- |
| Cc1cc2nc3c(=O)[nH]c(=O)nc-3n(CCN)c2cc1C.Cl [FL-AS-H-1a, 10-(2-aminoeth-1-yl)-7,8-dimethyl-[3H,10H]-benzo[g]pteridine-2,4-dione hydrochloride] | produced singlet oxygen | 5 | 366 | 1752 | 1695 | 3.6 | 3.6 | 8.6 | 3.0 | 6.7 | 4.0 | 4.79 | 4.63 | approximately 2 log10 units | approximately 2 log10 units |  |  |  |
| Cc1cc2nc3c(=O)n(CCN)c(=O)nc-3n(CCN)c2cc1C.Cl.Cl [FL-AS-H-2, 3,10-bis(2′-aminoeth-1′-yl)-7,8-dimethylbenzo[g]pteridine-2,4-dion-dihydrochloride] |  |  |  |  |  |  |  |  |  |  |  |  |  |  |  |  |  | degradation of the photosensitizer following irradiation ([4]; 10 μM in water, microemulsions E5 and E6, Blue V 380 to 480 nm): degraded both in water as well as in the microemulsions E5 and E6; rate of degradation in water compared with microemulsion E5 or E6 ([4]; 10 μM, Blue V): significantly faster |
| O=C1C(C[n+]2ccccc2)=Cc2cccc3cccc1c23.[Cl-] [SA-PN-01a] | produced singlet oxygen | 7 | 571 | 4413 | 3933 | 3.2 | 2.5 | 9.2 | 1.0 | 7.4 | 1.6 | 7.73 | 6.89 | 3 log10 units | 3 log10 units | more effective | more effective | reduction in the quantity of E. coli following irradiation [2, 11]: more than 6 log10 units; reduction in the quantity of S. aureus following irradiation [3, 11]: more than 6 log10 units |
| C[N+](C)(C)CC1=Cc2cccc3cccc(c23)C1=O.[Cl-] [SA-PN-02a, N,N,N-trimethyl-1-(1-oxo-1H-phenalen-2-yl)methanaminium chloride] |  |  |  |  |  |  |  |  |  |  |  |  |  |  |  | more effective | more effective |  |
| CN(CC1=Cc2cccc3cccc(c23)C1=O)C(=N)N.Cl [SA-PN-24d, 1-((1-oxo-1H-phenalen-2-yl)methyl)-1-methylguanidinium chloride] |  |  |  |  |  |  |  |  |  |  |  |  |  |  |  | more effective | more effective |  |
| C[n+]1ccc(-c2c3nc(c(-c4cc[n+](C)cc4)c4ccc([nH]4)c(-c4cc[n+](C)cc4)c4nc(c(-c5cc[n+](C)cc5)c5ccc2[nH]5)C=C4)C=C3)cc1 [TMPyP, 5,10,15,20-tetrakis(1-methyl-4-pyridyl)-porphyrin-tetra-(p-toluenesulphonate), reference compound] | produced singlet oxygen |  | 985 | 2874 | 1955 | 3.8 | 1.9 | 8.9 | 1.7 | 7.2 | 2.3 | 2.92 | 1.98 |  |  |  |  | destruction of E. coli by the singlet oxygen formed by the irradiation [2, 12]: destroyed; reduction in the quantity of E. coli [2, 13]: 2 log units; reduction in the quantity of E. coli [2, 14]: 5 log10 units; destruction of S. aureus by the singlet oxygen formed by the irradiation [3, 12]: destroyed; reduction in the quantity of S. aureus [3, 13]: 2 log units; reduction in the quantity of S. aureus [3, 14]: 5 log10 units; decay time for the singlet oxygen signal (tD) ([5]; in gel G3): 7.4 μs; rise time for the singlet oxygen signal (tR) ([5]; in gel G3): 2.7 μs; formation of singlet oxygen following irradiation ([5]; in gels G1, G2 and G3): could be detected |
